Measurements published in patent publication US6894073B2, “Use of diterpene compound as a therapeutic agent of inflammation, immune disease or cancer” (Korea Research Institute of Bioscience and Biotechnology, priority 2000, dated 2005).

Key:
[1] = system: nitric oxide (NO); experiment: Inhibition of NO production (nitrite, Griess reagent) in LPS-stimulated Raw 264.7 macrophage cells; type: cell-based, murine; conditions: for NO: 1 μg/ml LPS, 24 hours
Experimental: (§1) To investigate whether kaurane diterpene compounds obtained in Example 1 can inhibit the production of nitric oxide (NO) which induces apoptosis of the immune and neuron cells, the present inventors measured the amount of nitrite (NO2) accumulated in the culture medium of LPS-stimulated murine macrophage cells, which were treated with four kaurane diterpene compounds, kamebanin, kamebacetal A, kamebakaurin, or exisanin A.
In detail, Raw 264.7 murine macrophage cells (ATCC TIB-71) in DMEM medium were seeded to 96-well plate at a cell density of 1×10^5 cells/well and incubated for 3 hours at 37° C., 5% CO2 incubator. To induce NO synthesis in the macrophage cell, 1 μg/ml of LPS and 3 μg/ml, 0.3 μg/ml, and 0.03 μg/ml of kaurane diterpene compounds of the present invention were added to the medium and the plate was incubated for 24 hours. The amount of NO2, the final oxidation product of NO induced by the LPS in the medium was measured as followed. After collecting and centrifuging incubated medium, 100 μl of Griess reagent was added into 100 μl of each culture medium. Then, the medium was incubated for ten minutes at room temperature and absorbance at 550 nm wavelength was measured. Griess reagent was prepared by mixing a solution, wherein 1% sulfanilamide was dissolved in 5% phosphoric acid, and a solution of 0.1% naphyhylethylenediamine-HCl by a 1:1 ratio. To measure the amount of standard NO synthesis, NaNO2 was serially diluted and the absorbance was measured after reacting it with Griess reagent. From this, the standard curve for the amount of NO production was obtained. The amount of NO production in the culture medium treated with each compound was estimated using standard curve for NO determination.

[2] = system: prostaglandin E2; experiment: Inhibition of prostaglandin E2 production in LPS-stimulated Raw 264.7 cells (enzyme immunometric assay); type: cell-based, murine; conditions: for PGE2: 1 μg/ml LPS, 16 hours
Experimental: as §1, with “prostaglandin,” for “nitric oxide (NO)”, “inflammatory reaction,” for “apoptosis of the immune and neuron cells,”, “prostaglandin E2” for “nitrite (NO2)”
In detail, Raw 264.7 cells in DMEM medium were seeded to a 96-well plate at a cell density of 1×10^5 cells/well and were incubated for 18 hours. Cyclooxygenase-1, the constitutive rate-determining enzyme of the prostaglandin synthesis was inactivated by incubating for 3 hrs with 500 μM of aspirin and each well was washed two times with PBS (phosphate-buffered saline). To each well were added 1 μg/ml of LPS and 3 μg/ml, 0.3 μg/ml, and 0.03 μg/ml concentrations of kaurane diterpene compounds of the present invention and was incubated for 16 hours. After collecting supernatant by centrifugation, the amount of prostaglandin in the culture medium was quantified by enzyme immunometric assay.

[3] = system: TNF-α; experiment: Inhibition of TNF-α production in LPS-stimulated Raw 264.7 cells (enzyme immunometric assay); type: cell-based, murine; conditions: for TNF-α: 1 μg/ml LPS, 16 hours
Experimental: To investigate whether kaurane diterpene compounds obtained in Example 1 can inhibit effectively the production of tumor necrosis factor-α (TNF-α), one of the inflammatory mediator, which confers cytotoxic effect and induces the production of prostaglandin and cytokines, the present inventors measured the amount of TNF-α accumulated in the culture medium of LPS-stimulated murine macrophage cells, which were treated with four kaurane diterpene compounds, kamebanin, kamebacetal A, kamebakaurin, or exisanin A.
In detail, Raw 264.7 cells in DMEM medium were seeded to a 96-well plate at a cell density of 1×10^5 cells/well and were incubated for 3 hours at 37° C. in a 5% CO2 incubator. To each well were added 1 μg/ml of LPS and 3 μg/ml, 0.3 μg/ml, and 0.03 μg/ml concentrations of kaurane diterpene compounds of the present invention and was incubated for 16 hours. After collecting supernatant by centrifugation, the amount of TNF-α in the culture medium was quantified by enzyme immunometric assay.

[4] = system: NF-κB; experiment: NF-κB activation, SEAP reporter in LPS-stimulated RAW-NF-AP cells; type: cell-based, murine; conditions: Mus musculus
Experimental: RAW-NF-AP cells, which can be used effectively to detect the NF-κB dependent expression of reporter gene, (Korean Patent Application No. 1999-0006025), were seeded to a 96-well plate at a cell density of 1×10^5 cell/well and were incubated for 3 hours at 37° C. in a 5% CO2 incubator. Thereafter, 1 μg/ml concentration of LPS and 0.03 μg/ml, 0.3 μg/ml, and 3 μg/ml concentrations of kaurane diterpene compounds of the present invention were added to each well and was incubated for 16 hours. After collecting supernatant by centrifugation, the amount of secreted alkaline phosphatase (SEAP) in the culture medium of which expression is regulated by the activation of NF-κB was quantified.

[5] = system: adjuvant arthritis model; experiment: Adjuvant arthritis model, paw volume; type: in vivo, Sprague-Dawley rat; conditions: day 16-22, paw volume on 23rd day
Experimental: Finding the inhibitory effect of kaurane diterpene compounds on the production of NO, prostaglandin, and TNF, and on the activation of NF-κB in the murine macrophage cells stimulated by LPS, the present inventors investigated the pharmacological efficacy of kaurane diterpene compounds with a adjuvant arthritis model according to the method of Futaki et al. (General Pharmacology, 1993, 24, 105-110). To prepare animal model of the arthritis, 0.05 ml of 0.1% Mycobacterium butyricum suspended in Freud adjuvant (Sigma, USA) was injected intradermally to the left hind paw of the male Sprague-Dawley rat of 180 g weight. On the fifteenth day after injection, the volume of the right paw of the rats was measured using plethysmometer (Ugo-Basile, Italy), and only the rats having arthritis on the right leg were selected. Thereafter, the selected rats were divided into four groups, six rats per each group. Four kinds of kaurane diterpene compounds of the present invention were administered orally to each groups everyday from the sixteenth day to twenty-second day with doses of 3 mg/kg/day, 10 mg/kg/day, and 20 mg/kg/day in the form of the suspended solution with 0.1% methylcellulose. The inhibition rate of arthritis was calculated by comparing the volume of the paw with that of the control on the 23rd day.

[6] = Mus musculus, RAW264.7, LPS-stimulated Raw 264.7 cells

## C=C1C(=O)[C@@]23C(C[C@H](O)[C@@H]1[C@H]2O)[C@@]1(C)C(C[C@H]3O)C(C)(C)CC[C@@H]1O (stereo partly shown) [Exisanin A, exisanin A]
[1]; 0.03 μg/ml compound
  NO: 32.5 ± 3.5 µM
[1]; 0.3 μg/ml compound
  NO: 22.2 ± 2.3 µM
[1]; 3 μg/ml compound
  NO: 6.7 ± 0.8 µM
[1]; Mus musculus, RAW264.7, 0.03 μg/ml compound, read-out: Inhibition rate (%) of NO production
  inhibition at 0.03 µg/mL: 37%
[1]; Mus musculus, RAW264.7, 0.3 μg/ml compound, read-out: Inhibition rate (%) of NO production
  inhibition at 0.3 µg/mL: 59.3%
[1]; Mus musculus, RAW264.7, 3 μg/ml compound, read-out: Inhibition rate (%) of NO production
  inhibition at 3 µg/mL: 92.5%
[1]; [6]
  IC50: 0.35 µM
[2]; 0.03 μg/ml compound
  PGE2: 13.7 ± 0.3 ng/mL
[2]; 0.3 μg/ml compound
  PGE2: 10.7 ± 1.3 ng/mL
[2]; 3 μg/ml compound
  PGE2: 5.7 ± 0.7 ng/mL
[2]; Mus musculus, RAW264.7, 0.03 μg/ml compound, read-out: Inhibition rate (%) of prostaglandin E2 production
  inhibition at 0.03 µg/mL: -16.1%
[2]; Mus musculus, RAW264.7, 0.3 μg/ml compound, read-out: Inhibition rate (%) of prostaglandin E2 production
  inhibition at 0.3 µg/mL: 11.7%
[2]; Mus musculus, RAW264.7, 3 μg/ml compound, read-out: Inhibition rate (%) of prostaglandin E2 production
  inhibition at 3 µg/mL: 57.7%
[2]; [6]
  IC50: 5.37 µM
[3]; 0.03 μg/ml compound
  TNF-α: 1243.0 ± 195.6 pg/mL
[3]; 0.3 μg/ml compound
  TNF-α: 936.1 ± 0.00 pg/mL
[3]; 3 μg/ml compound
  TNF-α: 103.2 ± 12.8 pg/mL
[3]; Mus musculus, RAW264.7, 0.03 μg/ml compound, read-out: Inhibition rate (%) of TNF-α production
  inhibition at 0.03 µg/mL: 25.8%
[3]; Mus musculus, RAW264.7, 0.3 μg/ml compound, read-out: Inhibition rate (%) of TNF-α production
  inhibition at 0.3 µg/mL: 44.4%
[3]; Mus musculus, RAW264.7, 3 μg/ml compound, read-out: Inhibition rate (%) of TNF-α production
  inhibition at 3 µg/mL: 94.8%
[3]; [6]
  IC50: 0.61 µM
[4]; 0.03 μg/ml compound, 1 μg/ml LPS, 16 hours
  inhibition at 0.03 µg/mL: -2.6%
[4]; 0.3 μg/ml compound, 1 μg/ml LPS, 16 hours
  inhibition at 0.3 µg/mL: 19.4%
[4]; 3 μg/ml compound, 1 μg/ml LPS, 16 hours
  inhibition at 3 µg/mL: 93.7%
[4]; RAW-NF-AP cells, LPS
  IC50: 1.66 µM
[5]; 3 mg/kg/day oral
  Inhibition rate (%) of arthritis: 33 ± 14%
[5]; 10 mg/kg/day oral
  Inhibition rate (%) of arthritis: 52 ± 12%
[5]; 20 mg/kg/day oral
  Inhibition rate (%) of arthritis: 64 ± 13%
